# Values quoted from earlier work as cited in article PMC11510164 (Pharmaceuticals, 2024).
# Tested on: not given
# Settings: 25 °C
row,SMILES,water solubility [µg/mL]
1,"Cc1cccc(Nc2ccccc2C(=O)O)c1C [MFA, Mefenamic acid, reference compound]",10 to 20

# Same assay, conditions: pure component (ChCl: solid); ref per cell: 90, 123, 125, 126, 127, 129, 137, 139
SMILES,Density (g/cm^3),Density [g/mL]
"CCCCCCCCCC(=O)O [Dec, Decanoic acid (capric acid)]",0.89 [126] g/cm^3,–
"CC1CCC(C(C)C)C(O)C1 (racemic) [MNT, (±)-menthol]",0.89 [90] g/cm^3,–
"OC[C@@H](O)[C@H](O)[C@@H](O)CO [Xyl, Xylitol]",1.50 [137] g/cm^3,–
"O=C(O)C(=O)O [Oxa, Oxalic acid]",1.90 [126] g/cm^3,–
"Cc1cccc(Nc2ccccc2C(=O)O)c1C [MFA, Mefenamic acid, reference compound]",1.20 [125] g/cm^3,–
"N=C(N)NCCC[C@H](N)C(=O)O [Arg, L-Arginine]",1.42 [126] g/cm^3,–
"C=C(C)[C@H]1CC=C(C)CC1 [Lim, (R)-(+)-limonene]",0.84 [126] g/cm^3,–
"N[C@@H](CS)C(=O)O [Cys, L-Cysteine]",1.66 [126] g/cm^3,–
"CCCCCCCC/C=C\CCCCCCCC(=O)O [OLA, Oleic acid]",0.89 [126] g/cm^3,–
"OCC(O)CO [Gly, Glycerol]",1.26 [129] g/cm^3,–
"CCCCCCCCCCCCCC(=O)OC(C)C [IPM, Isoporpyl miristate]",0.85 [126] g/cm^3,–
"O=C(O)CO [Gla, Glycolic acid]",1.26 [126] g/cm^3,–
"OC[C@H]1O[C@H](O)[C@H](O)[C@@H](O)[C@@H]1O [Glu, D-(+)-glucose]",1.5620 [126] g/cm^3,–
"C[C@H](O)C(=O)O [Lac, L-lactic acid]",1.25 [129] g/cm^3,–
"OC[C@@H](O)[C@@H](O)[C@H](O)[C@@H](O)CO [Sor, D-(−)-sorbitol]",1.47 [129] g/cm^3,–
"CC(O)CO (stereo not shown) [PG, Propylene glycol]",1.04 [126] g/cm^3,–
"CC(C)Cc1ccc(C(C)C(=O)O)cc1 (stereo not shown) [IBU, Ibuprofen, reference compound]",1.03 [123] g/cm^3,–
"OC[C@H]1OC(O)(CO)[C@@H](O)[C@@H]1O (stereo partly drawn) [Fru, D-(−)-fructose]",1.60 [126] g/cm^3,–
"C[N+](C)(C)CCO [ChCl, Choline chloride]",–,~1.205

# Same assay, conditions: sol. 70%
row,SMILES,Density [g/mL]
1,"C[N+](C)(C)CCO [ChCl, Choline chloride]",~1.1

# Tested on: rats
# Settings: rat, in vivo, po
row,SMILES,LD50 [mg/kg]
1,"CC1CCC(C(C)C)C(O)C1 (racemic) [MNT, (±)-menthol]",3000
